Measured values: US12564605B2, “Plant based compositions and methods for the delivery of magnesium” (Standard Process, Inc., priority 2018, dated 2026)

Tested on: recognition learning and memory retrieval
Experiment: Novel Object Recognition (NOR) test
Assay type: in vivo, Sprague Dawley rats
Details: rats on low Mg diet; in comparison to Magtein and placebo control; FIG. 7
Description: Male Sprague Dawley rats (150-175 grams on arrival) from Envigo (Indianapolis, IN) were used in the study. Upon receipt, rats were assigned unique identification numbers and were group housed with 2-3 rats per cage in ventilated cages with micro-isolator filter tops. All rats were examined and weighed prior to initiation of the study to assure adequate health and suitability. During the course of the study, 12/12 light/dark cycles will be maintained. The room temperature will be maintained between 20° C. and 23° C. with a relative humidity maintained around 50%.
On the day of arrival to the research facility, animals (except for the normal Mg diet group, N=15) were placed on LabDiet 5008, a diet that is deficient in Mg containing 0.20% magnesium. […]
The Novel Object Recognition (NOR) is a test of recognition learning and memory retrieval, which takes advantage of the spontaneous preference of rodents to investigate a novel object compared to a familiar one. […] All training and testing trials were video-taped and scored by an observer blind to treatments.
On days 1 and 2, rats were allowed to freely explore the arena (no objects inside) for a 5-minute habituation period. […] One hour later, the rats were again placed into the test arena in the presence of one familiar object and one novel object (Object A and Object B), and the time spent exploring both objects is recorded. […]

## O=C([O-])CC(O)(CC(=O)[O-])C(=O)[O-].O=C([O-])CC(O)(CC(=O)[O-])C(=O)[O-].[Mg+2].[Mg+2].[Mg+2] [Mg citrate]
  Cognitive function (Novel Object Recognition test, Recognition Index): trend toward improvement in cognitive function
